Relative viability data for six cell lines are collected here from the supplement of paper PMC10307832.

What all share (experiment): relative viability (nuclei count vs DMSO), 5 days (fraction); higher = more cells survive
Compound in the test “CUDC-101 + Vorinostat”: C#Cc1cccc(Nc2ncnc3cc(OC)c(OCCCCCCC(=O)NO)cc23)c1 [CUDC-101] + O=C(CCCCCCC(=O)Nc1ccccc1)NO [Vorinostat] (partner 1 µM)
Summed up: (§1)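 Nuclei were stained with Hoechst during a one-step fixation (final 0.05% Triton X-100, 1% formaldehyde, 1 ug/ml Hoechst) carried out 5 days after dosing, then counted on 4× images. The cells, lung cancer lines in 1536-well plates, had been dosed by pin tool the day after seeding with one drug alone or a fixed anchor-drug dose plus five library-drug doses (not always all listed) in √10 steps. Relative viability is the nuclei count in treated wells divided by that in vehicle wells, and each value is the median of duplicate plates.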

Compound in the test “NVP-TAE684 + Linsitinib”: COc1cc(N2CCC(N3CCN(C)CC3)CC2)ccc1Nc1ncc(Cl)c(Nc2ccccc2S(=O)(=O)C(C)C)n1 [NVP-TAE684] + C[C@]1(O)C[C@@H](c2nc(-c3ccc4ccc(-c5ccccc5)nc4c3)c3c(N)nccn32)C1 [Linsitinib] (partner 1 µM)
The procedure, abridged: as §1

Compound in the test “Vandetanib + Tozasertib”: COc1cc2/c(=N/c3ccc(Br)cc3F)nc[nH]c2cc1OCC1CCN(C)CC1 [Vandetanib] + Cc1cc(Nc2cc(N3CCN(C)CC3)nc(Sc3ccc(NC(=O)C4CC4)cc3)n2)n[nH]1 [Tozasertib] (partner 0.1 µM)
Summed up:
as §1

Compound in the test “CUDC-101 + Olaparib”: C#Cc1cccc(Nc2ncnc3cc(OC)c(OCCCCCCC(=O)NO)cc23)c1 [CUDC-101] + O=C(c1cc(Cc2n[nH]c(=O)c3ccccc23)ccc1F)N1CCN(C(=O)C2CC2)CC1 [Olaparib] (partner 8 µM)
The procedure, abridged:
as §1

In the case of NCI-H2126, the relative viability with CUDC-101 + Vorinostat (first compound 0.01 µM) worked out at 0.862; with CUDC-101 + Vorinostat (first compound 0.03162 µM), 0.777; with CUDC-101 + Vorinostat (first compound 0.1 µM) it was 0.713; with CUDC-101 + Vorinostat (first compound 0.3162 µM), 0.704; in the test with CUDC-101 + Vorinostat (first compound 1 µM) it was 0.452; with NVP-TAE684 + Linsitinib (first compound 0.2 µM), 0.701. The relative viability with NVP-TAE684 + Linsitinib (first compound 0.6325 µM) was found to be 0.684; in the test with NVP-TAE684 + Linsitinib (first compound 2 µM), 0.688; with Vandetanib + Tozasertib (first compound 0.02 µM), 0.814; with Vandetanib + Tozasertib (first compound 0.06325 µM) it was 0.8; in the test with Vandetanib + Tozasertib (first compound 0.2 µM) it was 0.795; with Vandetanib + Tozasertib (first compound 0.6325 µM) it was 0.745. Also, the relative viability with Vandetanib + Tozasertib (first compound 2 µM) is 0.657; with CUDC-101 + Olaparib (first compound 0.01 µM), 0.875; with CUDC-101 + Olaparib (first compound 0.03162 µM), 0.919; in the test with CUDC-101 + Olaparib (first compound 0.1 µM), 0.905; with CUDC-101 + Olaparib (first compound 0.3162 µM), 0.968; in the test with CUDC-101 + Olaparib (first compound 1 µM), 0.787.
For the cell line NCI-H2228, the relative viability with CUDC-101 + Vorinostat (first compound 0.01 µM) is 0.611; with CUDC-101 + Vorinostat (first compound 0.03162 µM), 0.575; with CUDC-101 + Vorinostat (first compound 0.1 µM) it was 0.585; with CUDC-101 + Vorinostat (first compound 0.3162 µM), 0.783; in the test with CUDC-101 + Vorinostat (first compound 1 µM) it was 0.526; with NVP-TAE684 + Linsitinib (first compound 0.2 µM) it was 0.458. Also, the relative viability with NVP-TAE684 + Linsitinib (first compound 0.6325 µM) was 0.321; in the test with NVP-TAE684 + Linsitinib (first compound 2 µM) it was 0.285; with Vandetanib + Tozasertib (first compound 0.02 µM) it was 0.263; with Vandetanib + Tozasertib (first compound 0.06325 µM) it was 0.304; with Vandetanib + Tozasertib (first compound 0.2 µM), 0.124; in the test with Vandetanib + Tozasertib (first compound 0.6325 µM) it was 0.219. The relative viability with Vandetanib + Tozasertib (first compound 2 µM) was 0.214; with CUDC-101 + Olaparib (first compound 0.01 µM), 0.756; with CUDC-101 + Olaparib (first compound 0.03162 µM), 0.783; with CUDC-101 + Olaparib (first compound 0.1 µM), 1.03; with CUDC-101 + Olaparib (first compound 0.3162 µM), 0.659; with CUDC-101 + Olaparib (first compound 1 µM), 0.653.
For the cell line NCI-H2347, the relative viability amounted to 0.741 with CUDC-101 + Vorinostat (first compound 0.01 µM); 0.583 with CUDC-101 + Vorinostat (first compound 0.03162 µM); 0.631 in the test with CUDC-101 + Vorinostat (first compound 0.1 µM); 0.415 with CUDC-101 + Vorinostat (first compound 0.3162 µM); 0.46 in the test with CUDC-101 + Vorinostat (first compound 1 µM); 1.06 in the test with NVP-TAE684 + Linsitinib (first compound 0.2 µM). Moreover, the relative viability in the test with NVP-TAE684 + Linsitinib (first compound 0.6325 µM) is 0.976; with NVP-TAE684 + Linsitinib (first compound 2 µM), 0.875; with Vandetanib + Tozasertib (first compound 0.02 µM), 0.607; with Vandetanib + Tozasertib (first compound 0.2 µM), 0.553; with Vandetanib + Tozasertib (first compound 0.6325 µM) it was 0.563; with Vandetanib + Tozasertib (first compound 2 µM) it was 0.674. Further, the relative viability in the test with CUDC-101 + Olaparib (first compound 0.01 µM) was found to be 0.677; in the test with CUDC-101 + Olaparib (first compound 0.03162 µM), 0.681; with CUDC-101 + Olaparib (first compound 0.1 µM) it was 0.626; in the test with CUDC-101 + Olaparib (first compound 0.3162 µM) it was 0.686; with CUDC-101 + Olaparib (first compound 1 µM) it was 0.479.
On to NCI-H2405, for which the relative viability in the test with CUDC-101 + Vorinostat (first compound 0.01 µM) is 1.1; in the test with CUDC-101 + Vorinostat (first compound 0.03162 µM), 1.04; with CUDC-101 + Vorinostat (first compound 0.1 µM), 0.968; in the test with CUDC-101 + Vorinostat (first compound 0.3162 µM) it was 0.953; with CUDC-101 + Vorinostat (first compound 1 µM) it was 0.568; with NVP-TAE684 + Linsitinib (first compound 0.6325 µM), 0.849. Besides, the relative viability with NVP-TAE684 + Linsitinib (first compound 2 µM) is 0.573; with Vandetanib + Tozasertib (first compound 0.02 µM), 0.754; in the test with Vandetanib + Tozasertib (first compound 0.06325 µM), 0.716; with Vandetanib + Tozasertib (first compound 0.2 µM), 0.738; with Vandetanib + Tozasertib (first compound 0.6325 µM), 0.685; with Vandetanib + Tozasertib (first compound 2 µM), 0.714. The relative viability was found to be 0.901 with CUDC-101 + Olaparib (first compound 0.01 µM); 0.844 in the test with CUDC-101 + Olaparib (first compound 0.03162 µM); 0.861 with CUDC-101 + Olaparib (first compound 0.1 µM); 0.908 with CUDC-101 + Olaparib (first compound 0.3162 µM); 0.817 with CUDC-101 + Olaparib (first compound 1 µM).
For NCI-H3122, the relative viability amounted to 1.04 in the test with CUDC-101 + Vorinostat (first compound 0.01 µM); 0.912 with CUDC-101 + Vorinostat (first compound 0.03162 µM); 0.895 with CUDC-101 + Vorinostat (first compound 0.1 µM); 1.01 with CUDC-101 + Vorinostat (first compound 0.3162 µM); 0.685 with CUDC-101 + Vorinostat (first compound 1 µM); 0.266 with NVP-TAE684 + Linsitinib (first compound 0.2 µM). For the same cell line, the relative viability came out at 0.222 with NVP-TAE684 + Linsitinib (first compound 0.6325 µM); 0.184 with NVP-TAE684 + Linsitinib (first compound 2 µM); 0.522 with Vandetanib + Tozasertib (first compound 0.02 µM); 0.36 in the test with Vandetanib + Tozasertib (first compound 0.06325 µM); 0.372 with Vandetanib + Tozasertib (first compound 0.2 µM); 0.399 with Vandetanib + Tozasertib (first compound 0.6325 µM). The relative viability amounted to 0.4 with Vandetanib + Tozasertib (first compound 2 µM); 0.61 with CUDC-101 + Olaparib (first compound 0.01 µM); 0.647 with CUDC-101 + Olaparib (first compound 0.03162 µM); 0.625 with CUDC-101 + Olaparib (first compound 0.1 µM); 0.598 in the test with CUDC-101 + Olaparib (first compound 0.3162 µM); 0.558 in the test with CUDC-101 + Olaparib (first compound 1 µM).
For PC-3 [JPC-3], the relative viability in the test with CUDC-101 + Vorinostat (first compound 0.01 µM) was determined as 0.753; in the test with CUDC-101 + Vorinostat (first compound 0.03162 µM), 0.691; with CUDC-101 + Vorinostat (first compound 0.1 µM), 0.387; with CUDC-101 + Vorinostat (first compound 0.3162 µM), 0.383; with CUDC-101 + Vorinostat (first compound 1 µM) it was 0.335; with NVP-TAE684 + Linsitinib (first compound 0.2 µM), 0.96. Also, the relative viability in the test with NVP-TAE684 + Linsitinib (first compound 0.6325 µM) was determined as 0.934; with NVP-TAE684 + Linsitinib (first compound 2 µM) it was 0.843; with Vandetanib + Tozasertib (first compound 0.02 µM), 0.851; with Vandetanib + Tozasertib (first compound 0.06325 µM), 0.831; in the test with Vandetanib + Tozasertib (first compound 0.2 µM) it was 0.938; in the test with Vandetanib + Tozasertib (first compound 0.6325 µM) it was 0.776. Moreover, the relative viability amounted to 0.491 with Vandetanib + Tozasertib (first compound 2 µM); 1.09 in the test with CUDC-101 + Olaparib (first compound 0.01 µM); 0.959 with CUDC-101 + Olaparib (first compound 0.03162 µM); 0.821 in the test with CUDC-101 + Olaparib (first compound 0.1 µM); 0.515 with CUDC-101 + Olaparib (first compound 0.3162 µM); 0.479 with CUDC-101 + Olaparib (first compound 1 µM).
